Counter-ions that a name gives are not always drawn.
Tests used:
[1] = Octanol/water partition coefficient; assay type: physicochemical; details: Log10(concentration in octanol phase/concentration in aqueous phase), aqueous buffer of pH 7
Protocol: Note that, in the present invention, the octanol/water partition coefficient is determined based on active ingredient concentration of each phase obtained by adding an active ingredient to a flask containing octanol and an aqueous buffer of pH 7, shaking the flask, and then determining the concentration. Specifically, the partition coefficient can be determined by calculation using an equation: Octanol/water partition coefficient=Log10(concentration in an octanol phase/concentration in an aqueous phase).

[2] = test system: dorsal skin of a rabbit; test: Primary irritation index of active ingredients (4% by weight in Plastibase); assay type: in vivo; details: active ingredient 4% by weight in Plastibase, Draize scores at 24 and 72 hours
Protocol: Low skin irritation means having a primary irritation index (P.I.I.) of 5 or less. Note that, the primary irritation index can be measured by a method described below.
An active ingredient is added to an ointment base Plastibase (manufactured by Taisho Pharmaceutical Co., Ltd.) such that its content reaches 4% by weight based on the total weight, mixed, and dispersed therein to produce a formulation.
The dorsal skin of a rabbit is shaved with an electric clipper (with an electric shaver as required). Healthy skin at two points on either side of the dorsal mid-line of the dorsal skin, that is, at four points in total, is used as administration sites. Next, the formulation prepared is taken with a spatula and spread evenly on pieces of lint each having a size of 2 cm×2 cm, and the pieces are attached onto the administration sites. The lint pieces are fixed by covering with a non-woven adhesive bandage (manufactured by Nichiban Co., Ltd., MESHPORE, No. 50). Then, the administration sites are altogether wrapped with gauze and then sealed by covering with an adhesive cloth elastic bandage (manufactured by Nichiban Co., Ltd., ELASTPORE, No. 100).
Specifically, individual skin reaction scores (sum of erythema and eschar formation and edema formation) at the administration sites of each rabbit are calculated for each administration specimen at each observation time. […] Specifically, the following equations (1) and (2) are used for the calculation.

SMILES | octanol/water partition coefficient [1] | primary irritation index (P.I.I.) [2] | logD [1]
CCCc1nc(C)c2c(=O)[nH]c(-c3cc(S(=O)(=O)N4CCN(CC)CC4)ccc3OCC)nn12 [vardenafil hydrochloride hydrate] | 0.0 | – | –
CC(C(=O)O)c1ccc(CC2CCCC2=O)cc1 (stereo not drawn) [loxoprofen sodium dihydrate] | – | 0.3 | 0.8
CCN(C)C(=O)Oc1cccc([C@H](C)N(C)C)c1 [rivastigmine] | – | 0.5 | –
NC(=O)CC[C@@H]1NC(=O)[C@H](Cc2ccccc2)NC(=O)[C@H](Cc2ccc(O)cc2)NC(=O)[C@@H](N)CSSC[C@@H](C(=O)N2CCC[C@H]2C(=O)N[C@@H](CCCN=C(N)N)C(=O)NCC(N)=O)NC(=O)[C@H](CC(N)=O)NC1=O [[Arg-8]-Vasopressin] | – | – | -4.8
CC12CC3CC(C)(C1)CC(N)(C3)C2 [memantine hydrochloride] | – | 2.5 | –
